The source of these data is US20230303599A1, “PRODRUGS OF PHOSPHONAMIDE NUCLEOTIDE ANALOGUES AND THEIR PHARMACEUTICAL USE” (priority 2020, published 2023).

Converted amounts (≈) assume the structure as drawn. Bounds are passed on as bounds.

A short description of the data set: Kinetic solubility analysis. The data set is classed as physicochemical. The note with it: 1× PBS, 24.2 °C, aqueous buffer, kinetic from dmso stock; pH 7.4 PBS, 1% DMSO, 24-hour incubation at ambient temperature. The method, then: Example 108: Kinetic Solubility Analysis
Buffer Preparation: 0.1 N HCl: Hydrochloric acid, 0.1 N standardized solution (MP Biomedicals part number 199569). 1×PBS, pH 7.4: Phosphate Buffered Saline (PBS) solution 10× (Fisher Bioreagent part number BP399-500) 50 mL was added to approximately 450 mL HPLC grade H2O. The volume of the solution was then adjusted to 500 mL for a total dilution factor of 1:10 and a final PBS concentration of 1×.
The final DMSO concentration was 1.0% (v/v) and maximum theoretical compound concentration is 100 μM (for compound stock concentration of 10 mM). The filter plate was sealed. Following 24-hour incubation at ambient temperature (24.2-27.5° C.), the samples were vacuum filtered and the filtrates were collected in a 96 well polypropylene plate for analysis. The collection plate was sealed for analysis. Filtrates were injected into the Antek 8060 chemiluminescent nitrogen detector for quantification. The results are reported in μM.
The filtrates were quantified with respect to this calibration curve. Each calculated solubility value was corrected for background nitrogen present in the DMSO and in the medium used to prepare the sample. All reported values for compounds containing adjacent nitrogen atoms in a ring structure were increased by approximately 25%.
A word on the solubility (kinetic): it is solubility judged after dilution from a stock solution rather than from solid. Compound `C[C@H](Cn1cnc2c(N)ncnc21)OCP(=O)(NC(C)(C)C(=O)OCC(C)(C)C)NC(C)(C)C(=O)OCC(C)(C)C` [Example 5] had a solubility (kinetic) at 24 h of 53 µg/mL (≈ 88.7 µM).

Compound `CC(C)CCOC(=O)C(C)(C)NP(=O)(CO[C@H](C)Cn1cnc2c(N)ncnc21)NC(C)(C)C(=O)OCCC(C)C` [Example 6, Diisopentyl 2,2′-(((((1-(6-amino-9H-purin-9-yl)propan-2-yl)oxy)methyl)phosphoryl)bis(azanediyl))(R)-bis(2-methylpropanoate)] yielded a solubility (kinetic) at 24 h of 49 µg/mL (≈ 82 µM).

`CCC(CC)CCOC(=O)C(C)(C)NP(=O)(CO[C@H](C)Cn1cnc2c(N)ncnc21)NC(C)(C)C(=O)OCCC(CC)CC` [Example 7, Bis(3-ethylpentyl) 2,2′-(((((1-(6-amino-9H-purin-9-yl)propan-2-yl)oxy)methyl)phosphoryl)bis(azanediyl))(R)-bis(2-methylpropanoate)] came in with a kinetic solubility at 24 h of 7 µg/mL (≈ 10.7 µM).

In turn, `C[C@H](Cn1cnc2c(N)ncnc21)OCP(=O)(NC(C)(C)C(=O)OCCC(C)(C)C)NC(C)(C)C(=O)OCCC(C)(C)C` [Example 8, Bis(3,3-dimethylbutyl) 2,2′-(((((1-(6-amino-9H-purin-9-yl)propan-2-yl)oxy)methyl)phosphoryl)bis(azanediyl))(R)-bis(2-methylpropanoate)] displayed a kinetic solubility at 24 h of 50 µg/mL (≈ 79.9 µM).

For the compound `CCCCCCOC(=O)[C@](C)(CC)NP(=O)(CO[C@H](C)Cn1cnc2c(N)ncnc21)N[C@@](C)(CC)C(=O)OCCCCCC` [Example 10, Dihexyl 2,2′-((((((R)-1-(6-amino-9H-purin-9-yl)propan-2-yl)oxy)methyl)phosphoryl)bis(azanediyl))(2S,2′S)-bis(2-methylbutanoate)], the kinetic solubility at 24 h came to 7 µg/mL (≈ 10.7 µM).

Consider `CCCCCCOC(=O)[C@](C)(Cc1ccccc1)NP(=O)(CO[C@H](C)Cn1cnc2c(N)ncnc21)N[C@@](C)(Cc1ccccc1)C(=O)OCCCCCC` [Example 11, Dihexyl 2,2′-((((((R)-1-(6-amino-9H-purin-9-yl)propan-2-yl)oxy)methyl)phosphoryl)bis(azanediyl))(2S,2'S)-bis(2-methyl-3-phenylpropanoate)], for which the kinetic solubility at 24 h is < 1 µg/mL.

`CCCCCCOC(=O)C(C)(C)NP(=O)(CO[C@H](C)Cn1cnc2c(N)ncnc21)NC1(C(=O)OCCCCCC)CC1` (stereo partly drawn) [Example 20, Hexyl 1-((((((R)-1-(6-amino-9H-purin-9-yl)propan-2-yl)oxy)methyl)((1-(hexyloxy)-2-methyl-1-oxopropan-2-yl)amino)phosphoryl)amino)cyclopropane-1-carboxylate]: the kinetic solubility at 24 h was found to be 49 µg/mL (≈ 78.6 µM).

`CCCCCCOC(=O)C(C)(C)NP(=O)(CO[C@H](C)Cn1cnc2c(N)ncnc21)NC(C)(C)C(=O)O[C@H]1CC[C@H](C(F)(F)F)CC1` (stereo partly drawn) [Example 22, Hexyl 2-((((((R)-1-(6-amino-9H-purin-9-yl)propan-2-yl)oxy)methyl)((2-methyl-1-oxo-1-((trans-4-(trifluoromethyl)cyclohexyl)oxy)propan-2-yl)amino)phosphoryl)amino)-2-methylpropanoate] yielded a kinetic solubility at 24 h of 36 µg/mL (≈ 52 µM).

`C[C@H](Cn1cnc2c(N)ncnc21)OCP(=O)(NC(C)(C)C(=O)OCCCCC(F)(F)F)NC(C)(C)C(=O)OCCCCC(F)(F)F` [Example 25, Bis(5,5,5-trifluoropentyl) 2,2′-(((((1-(6-amino-9H-purin-9-yl)propan-2-yl)oxy)methyl)phosphoryl)bis(azanediyl))(R)-bis(2-methylpropanoate)] came in with a solubility (kinetic) at 24 h of 84 µg/mL (≈ 119 µM).

As for `C[C@H](Cn1cnc2c(N)ncnc21)OCP(=O)(NC(C)(C)C(=O)O[C@H]1C[C@H](C(F)(F)F)C1)NC(C)(C)C(=O)O[C@H]1C[C@H](C(F)(F)F)C1` [Example 26, Bis(trans-3-(trifluoromethyl)cyclobutyl) 2,2′-((((((R)-1-(6-amino-9H-purin-9-yl)propan-2-yl)oxy)methyl)phosphoryl)bis(azanediyl))bis(2-methylpropanoate)], the solubility (kinetic) at 24 h worked out at 78 µg/mL (≈ 111 µM).
